molecular target: T1, hDGAT1 (Homo sapiens, UniProt O75907); test: In-vitro DGAT1 assay (14C oleoyl CoA, hDGAT1 microsomes from Sf9 cells); settings: at 1 μM
T1 sequence (O75907 1-488): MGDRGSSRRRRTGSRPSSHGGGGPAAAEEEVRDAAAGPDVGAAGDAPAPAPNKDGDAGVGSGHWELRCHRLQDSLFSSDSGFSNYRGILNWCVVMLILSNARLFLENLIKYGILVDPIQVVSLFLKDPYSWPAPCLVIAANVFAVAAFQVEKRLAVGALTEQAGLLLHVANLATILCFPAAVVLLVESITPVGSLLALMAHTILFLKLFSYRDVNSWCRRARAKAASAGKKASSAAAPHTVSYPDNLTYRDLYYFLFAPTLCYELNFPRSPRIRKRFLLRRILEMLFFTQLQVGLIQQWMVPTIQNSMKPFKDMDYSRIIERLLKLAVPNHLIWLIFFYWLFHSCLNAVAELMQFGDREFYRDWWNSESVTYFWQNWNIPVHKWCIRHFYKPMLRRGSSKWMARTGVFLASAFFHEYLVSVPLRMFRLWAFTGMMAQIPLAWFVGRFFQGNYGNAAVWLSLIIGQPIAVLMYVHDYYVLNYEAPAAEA
Description: Sf9 cells were seeded in spinner flasks on day 0 at a cell density of 1×10^6 and infected on day 1 with hDGAT1 baculovirus at a multiplicity of infection (MOI) of 5 and a cell density of 2×10^6. On day 3 (or 66-72 h), cells were harvested and centrifuged at 2500×g for 10 min. Pellet was resuspended in lysis buffer (100 mM sucrose, 50 mM KCl, 40 mM KH2PO4, 30 mM EDTA, pH 7.2) and passed through 21-gauge needle approximately 10 times. […] The supernatant was subjected to centrifugation at 35,000 rpm in a Beckman Ti-45 rotor at 4° C. for 1 h. The resultant pellet containing the microsomes wasere resuspended overnight in 1 mL of lysis buffer and total protein concentration was estimated using Bradford Reagent. Microsomes were aliquoted and stored at −80° C.
Frozen aliquots of hDGAT1 containing microsomes were thawed (5-10 mg/mL total protein) on ice and diluted to a working stock of 1 mg/mL with DGAT Assay Buffer (DAB).
The assay was performed in duplicates in a reaction volume of 100 μL. […] Procedure:
The reaction was started by the addition of 2.5 μL of 1 mg/mL of microsomes (iv) to the mixture and incubated at 37° C. for 10 min. […] The mixture was vortexed and the triglycerides formed were extracted into the organic heptane phase.

Structure (SMILES) | % Inhibition of hDGAT1
O=C(Nc1ccc(-c2ccc3c(c2)C(=O)N([C@@H]2CCC[C@@H]2C(=O)O)C3)cc1)c1ccc(C(F)(F)F)cc1 [Example 598, (1S,2R)-2-(1-Oxo-6-(4-(4-(trifluoromethyl)benzamido)phenyl)isoindolin-2-yl)cyclopentanebcarboxylic acid] | ++ (>50% Inhibition)

same assay, conditions: read-out: % Inhibition of hDGAT1

Structure (SMILES) | inhibition at 1 µM
COc1cccc(NC(=O)Nc2ccc(-c3ccc4c(c3)C(=O)N([C@H](C(=O)O)C(C)C)C4)cc2)c1 [Example 26, (S)-2-(6-(4-(3-(3-Methoxyphenyl)ureido)phenyl)-1-oxoisoindolin-2-yl)-3-methyl butanoic acid] | 10 to 50%
COc1cccc(NC(=S)Nc2ccc(-c3ccc4c(c3)C(=O)N([C@H](C(=O)O)C(C)C)C4)cc2)c1 [Example 60, (S)-2-(6-(4-(3-(3-Methoxyphenyl)thioureido)phenyl)-1-oxoisoindolin-2-yl)-3-methylbutanoic acid] | > 50%
O=C(Nc1ccc(-c2ccc3c(c2)C(=O)N(C2(C(=O)O)CCCC2)C3)cc1)Nc1cccc(C(F)(F)F)c1 [Example 343, 1-(1-Oxo-6-(4-(3-(3-(trifluoromethyl)phenyl)ureido)phenyl)isoindolin-2-yl)cyclopentanecarboxylic acid] | 10 to 50%
CC(C)[C@@H](C(=O)O)N1Cc2ccc(-c3ccc(NC(=O)c4ccc(C(F)(F)F)cc4F)cc3)cc2C1=O [Example 192, (S)-2-(6-(4-(2-Fluoro-4-(trifluoromethyl)benzamido)phenyl)-1-oxoisoindolin-2-yl)-3-methylbutanoic acid] | > 50%
CC(C)[C@@H](C(=O)O)N1Cc2ccc(-c3ccc(NC(=O)c4ccccc4)cc3)cc2C1=O [Example 98, (S)-2-(6-(4-Benzamidophenyl)-1-oxoisoindolin-2-yl)-3-methylbutanoic acid] | 10 to 50%
CCC(C#N)(CC)c1ccc(C(=O)Nc2ccc(-c3ccc4c(c3)C(=O)N([C@H](C(=O)O)C(C)C)C4)cc2)cc1 [Example 633, (S)-2-(6-(4-(4-(3-Cyanopentan-3-yl)benzamido)phenyl)-1-oxoisoindolin-2-yl)-3-methylbutanoic acid] | > 50%
CC(C)[C@@H](C(=O)O)N1Cc2ccc(-c3ccc(NC(=O)Nc4ccc(Cl)cc4Oc4ccccc4)cn3)cc2C1=O [Example 396, (S)-2-(6-(5-(3-(4-Chloro-2-phenoxyphenyl)ureido)pyridin-2-yl)-1-oxoisoindolin-2-yl)-3-methylbutanoic acid] | > 50%
CC(C)(C)c1ccc(C(=O)Nc2ccc(-c3ccc4c(c3)C(=O)N(C(C)(C)C(=O)O)C4)cc2)cc1 [Example 519, 2-(6-(4-(4-(tert-Butyl)benzamido)phenyl)-1-oxoisoindolin-2-yl)-2-methyl propanoic acid] | > 50%
COc1ccc(NC(=O)Nc2ccc(-c3ccc4c(c3)C(=O)N([C@H](C(=O)O)C(C)C)C4)cc2)cc1 [Example 28, (S)-2-(6-(4-(3-(4-Methoxyphenyl)ureido)phenyl)-1-oxoisoindolin-2-yl)-3-methylbutanoic acid] | 10 to 50%
Cc1cc(C(=O)Nc2ccc(-c3ccc4c(c3)C(=O)N([C@H](C(=O)O)C(C)C)C4)cc2)ccc1F [Example 162, (S)-2-(6-(4-(4-Fluoro-3-methylbenzamido)phenyl)-1-oxoisoindolin-2-yl)-3-methyl butanoic acid] | > 50%
CCCCCc1ccc(C(=O)Nc2ccc(-c3ccc4c(c3)C(=O)N([C@H](C(=O)O)C(C)C)C4)nn2)cc1 [Example 500, (S)-3-Methyl-2-(1-oxo-6-(6-(4-pentylbenzamido)pyridazin-3-yl)isoindolin-2-yl)butanoic acid] | > 50%
O=C(O)CN1Cc2ccc(-c3ccc(NC(=O)Nc4cccc(C(F)(F)F)c4)cc3)cc2C1=O [Example 334, 2-(1-Oxo-6-(4-(3-(3-(trifluoromethyl)phenyl)ureido)phenyl)isoindolin-2-yl)acetic acid] | 10 to 50%
COC[C@@H](C(=O)O)N1Cc2cc(-c3ccc(NC(=O)Nc4cccc(C(F)(F)F)c4)cc3)ccc2C1=O [Example 385, (S)-3-Methoxy-2-(1-oxo-5-(4-(3-(3-(trifluoromethyl)phenyl)ureido)phenyl)isoindolin-2-yl)propanoic acid] | 10 to 50%
CC(C)[C@@H](C(=O)O)N1Cc2cc(-c3ccc(NC(=O)Nc4ccc(C(F)(F)F)cc4)cc3)ccc2C1=O [Example 245, (S)-3-Methyl-2-(1-oxo-5-(4-(3-(4-(trifluoromethyl)phenyl)ureido)phenyl)isoindolin-2-yl)butanoic acid] | > 50%
Cc1ccc(C(=O)Nc2ccc(-c3ccc4c(c3)CN([C@H](C(=O)O)C(C)C)C4=O)cc2)cc1 [Example 319, (S)-3-Methyl-2-(5-(4-(4-methylbenzamido)phenyl)-1-oxoisoindolin-2-yl)butanoic acid] | 10 to 50%
CC(C)[C@@H](C(=O)O)N1Cc2ccc(-c3ccc(NC(=O)c4nnc(-c5ccccc5)s4)cc3)cc2C1=O [Example 627, (S)-3-Methyl-2-(1-oxo-6-(4-(5-phenyl-1,3,4-thiadiazole-2-carboxamido)phenyl)isoindolin-2-yl)butanoic acid] | > 50%
CC(C)[C@@H](C(=O)O)N1Cc2ccc(-c3ccc(NC(=O)Nc4ccc(F)cc4F)cc3)cc2C1=O [Example 10, (S)-2-(6-(4-(3-(2,4-Difluorophenyl)ureido)phenyl)-1-oxoisoindolin-2-yl)-3-methylbutanoic acid] | 10 to 50%
CC(C)[C@@H](C(=O)O)N1Cc2ccc(-c3ccc(NC(=O)Nc4ccccc4Oc4ccccc4)cc3)cc2C1=O [Example 48, (S)-3-Methyl-2-(1-oxo-6-(4-(3-(2-phenoxyphenyl)ureido)phenyl)isoindolin-2-yl)butanoic acid] | > 50%
O=C(Nc1ccc(-c2ccc3c(c2)C(=O)N(C2(C(=O)O)CCCC2)C3)cc1)c1ccc(Cl)cc1 [Example 533, 1-(6-(4-(4-Chlorobenzamido)phenyl)-1-oxoisoindolin-2-yl)cyclopentane carboxylic acid] | > 50%
CC(C)[C@@H](C(=O)O)N1Cc2ccc(-c3ccc(NC(=O)c4cc(-c5ccc(Cl)cc5)no4)cc3)cc2C1=O [Example 618, (S)-2-(6-(4-(3-(4-Chlorophenyl)isoxazole-5-carboxamido)phenyl)-1-oxoisoindolin-2-yl)-3-methylbutanoic acid] | > 50%
CC(C)[C@@H](C(=O)O)N1Cc2cc(-c3ccc(NS(=O)(=O)c4ccc(C(F)(F)F)cc4)cc3)ccc2C1=O [Example 299, (S)-3-Methyl-2-(1-oxo-5-(4-(4-(trifluoromethyl)phenylsulfonamido)phenyl)isoindolin-2-yl)butanoic acid] | 10 to 50%
C[C@@H](C(=O)O)N1Cc2cc(-c3ccc(NC(=O)Nc4cccc(C(F)(F)F)c4)cc3)ccc2C1=O [Example 367, (S)-2-(1-Oxo-5-(4-(3-(3-(trifluoromethyl)phenyl)ureido)phenyl)isoindolin-2-yl)propanoic acid] | > 50%
CC(C)[C@@H](C(=O)O)N1Cc2ccc(-c3ccc(NC(=O)c4ccc5c(c4)OCO5)cc3)cc2C1=O [Example 128, (S)-2-(6-(4-(Benzo[d][1,3]dioxole-5-carboxamido)phenyl)-1-oxoisoindolin-2-yl)-3-methylbutanoic acid] | > 50%
CC(C)[C@@H](C(=O)O)N1Cc2ccc(-c3ccc(NC(=S)Nc4cccc(F)c4)cc3)cc2C1=O [Example 56, (S)-2-(6-(4-(3-(3-Fluorophenyl)thioureido)phenyl)-1-oxoisoindolin-2-yl)-3-methylbutanoic acid] | 10 to 50%
CC(C)[C@@H](C(=O)O)N1Cc2ccc(-c3ccc(NC(=S)Nc4ccccc4F)cc3)cc2C1=O [Example 52, (S)-2-(6-(4-(3-(2-Fluorophenyl)thioureido)phenyl)-1-oxoisoindolin-2-yl)-3-methylbutanoic acid] | 10 to 50%
CC(C)C[C@@H](C(=O)O)N1Cc2ccc(-c3ccc(NC(=O)Nc4cccc(C(F)(F)F)c4)cc3)cc2C1=O [Example 352, (S)-4-Methyl-2-(1-oxo-6-(4-(3-(3-(trifluoromethyl)phenyl)ureido)phenyl)isoindolin-2-yl)pentanoic acid] | 10 to 50%
CC(C)[C@@H](C(=O)O)N1Cc2ccc(-c3ccc(NC(=O)c4ccccc4C(F)(F)F)cc3)cc2C1=O [Example 200, (S)-3-Methyl-2-(1-oxo-6-(4-(2-(trifluoromethyl)benzamido)phenyl)isoindolin-2-yl)butanoic acid] | 10 to 50%
O=C(Nc1ccc(-c2ccc3c(c2)C(=O)N(C2(C(=O)O)CCC2)C3)cc1)c1ccc(Cl)cc1 [Example 578, 1-(6-(4-(4-Chlorobenzamido)phenyl)-1-oxoisoindolin-2-yl)cyclobutane carboxylic acid] | > 50%
COc1ccccc1C(=O)Nc1ccc(-c2ccc3c(c2)C(=O)N([C@H](C(=O)O)C(C)C)C3)cc1 [Example 160, (S)-2-(6-(4-(2-Methoxybenzamido)phenyl)-1-oxoisoindolin-2-yl)-3-methyl butanoic acid] | > 50%
CC(C)[C@@H](C(=O)O)N1Cc2ccc(-c3ccc(NC(=O)c4ccccc4Cl)cc3)cc2C1=O [Example 132, (S)-2-(6-(4-(2-Chlorobenzamido)phenyl)-1-oxoisoindolin-2-yl)-3-methyl butanoic acid] | 10 to 50%
